Laboratory results from patent US20260115202A1, “TOPICAL COMPOSITIONS COMPRISING AN ESTETROL COMPONENT AND USE OF SAID COMPOSITIONS FOR WOUND HEALING” (NEURALIS SA, priority 2022, published 2026).

System: LPS-induced delayed wound healing mice model
Assay: In vivo LPS model, single or repeated administration: wound histology at day 3
Details: single administration
Excerpt: The in vivo LPS treatment protocol (delayed wound healing model) as presented in example 4 has been repeated with the following groups of animals: • Double placebo group (untreated control). • LPS control (LPS, placebo treatment). • LPS with topical EstroGel (estradiol gel, contains 0.06% 17β-estradiol as hemihydrate in a hydro-alcoholic gel), repeated administration for 4 days. • LPS with topical AG26 (E4 at 0.06%), single administration. • LPS with topical AG26 (E4 at 0.06%), repeated administration for 4 days. • LPS with topical AG28 (E4 at 0.06%), single administration. • LPS with topical AG28 (E4 at 0.06%), repeated administration for 4 days. On day 0 only (single administration), or on days −1, 0, 1 and 2 (repeated administration), topical EstroGel. AG26. AG28 or corresponding placebo was applied in a thin layer over the top of the wounds (60 μl total: 30 μl/wound) during observations. On day 3, mice were humanely culled via rising concentration of CO2 and cervical dislocation. Uteri as well as non-wounded and wound tissue samples were processed as described under example 4. […] Next, we evaluated wound closure from histological samples (FIG. 13). Histological sections were subjected to K14 immunohistochemistry to visualise the newly forming epidermis.

C[C@]12CC[C@@H]3c4ccc(O)cc4CC[C@H]3[C@@H]1[C@@H](O)[C@@H](O)[C@@H]2O [Formulation E4, 1,3,5 (10)-estratrien-3,15alpha, 16alpha, 17beta-tetrol]
numbers of wound neutrophils: reduced numbers of wound neutrophils
